Reference: ChEMBL document CHEMBL1201862, “PubChem BioAssay data set” (2004)
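Interpolation was linear, between the two tested concentrations surrounding the appropriate level; five concentrations were tested over 48 hours in 96-well plates. The concentration for 50% growth inhibition is given as GI50.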 Activity calls are given as the source filed them. Cut-off read from the data, not from the text of the source: active = GI50 up to about 1.1 µM and inactive = higher.

Key:
Assay in all cases: NCI-60 cell line screen, 48 h
SK-MEL-2 = tested on: SK-MEL-2
BT-549 = tested on: BT-549
KM12 = tested on: KM12
M14 = tested on: M14
Malme-3M = tested on: Malme-3M
HL-60 = tested on: HL-60
MDA-MB-231 = tested on: MDA-MB-231
SF-295 = tested on: SF-295
U-251 = tested on: U-251
MCF7 = tested on: MCF7
HT-29 = tested on: HT-29
TK-10 = tested on: TK-10
A549 = tested on: A549
OVCAR-3 = tested on: OVCAR-3
NCI-H460 = tested on: NCI-H460
SNB-19 = tested on: SNB-19
SF-268 = tested on: SF-268
SNB-75 = tested on: SNB-75
SR = tested on: SR
Hs-578T = tested on: Hs-578T

Row | Structure (SMILES) | GI50 (SK-MEL-2) | GI50 (BT-549) | GI50 (KM12) | GI50 (M14) | GI50 (Malme-3M) | GI50 (HL-60) | GI50 (MDA-MB-231) | GI50 (SF-295) | GI50 (U-251) | GI50 (MCF7) | GI50 (HT-29) | GI50 (TK-10) | GI50 (A549) | GI50 (OVCAR-3) | GI50 (NCI-H460) | GI50 (SNB-19) | GI50 (SF-268) | GI50 (SNB-75) | GI50 (SR) | GI50 (Hs-578T)
1 | Cc1cc(S(=O)(=O)Nc2nc3ccccc3c(=O)n2N)c(S)cc1Cl | 29.3 µM (inactive) | 47.6 µM (inactive) | 37.2 µM (inactive) | 39.6 µM (inactive) | 23.1 µM (inactive) | > 100 µM (inactive) | 32.9 µM (inactive) | 28.3 µM (inactive) | 23.1 µM (inactive) | 71.1 µM (inactive) | 53 µM (inactive) | 48.1 µM (inactive) | 31.1 µM (inactive) | 44.6 µM (inactive) | 33.4 µM (inactive) | – | – | – | – | –
2 | O=C1C=Cc2c(Cl)sc(Cl)c21 | 2.2 µM (inactive) | 3.08 µM (inactive) | 0.883 µM (active) | 1.87 µM (inactive) | – | – | 2.86 µM (inactive) | 8.59 µM (inactive) | 2.99 µM (inactive) | 1.05 µM (active) | 1.46 µM (inactive) | 2.24 µM (inactive) | 4.24 µM (inactive) | 1.85 µM (inactive) | 9.31 µM (inactive) | 4.63 µM (inactive) | 1.66 µM (inactive) | 3.61 µM (inactive) | 0.347 µM (active) | –
3 | Cc1ccc(N(C(=O)Nc2ccc(F)c(Cl)c2)C2=NCC(C)S2)cc1 (centres undefined) | 61.5 µM (inactive) | – | 42 µM (inactive) | – | 77.3 µM (inactive) | 23.8 µM (inactive) | > 100 µM (inactive) | 49.3 µM (inactive) | 50.6 µM (inactive) | 8.83 µM (inactive) | 36 µM (inactive) | 29.7 µM (inactive) | 57.3 µM (inactive) | 45.3 µM (inactive) | 45.1 µM (inactive) | > 100 µM (inactive) | 27.8 µM (inactive) | 17.9 µM (inactive) | 40.2 µM (inactive) | > 100 µM (inactive)
4 | Cc1nc2c3c(ncn2n1)Oc1c(c(-c2ccccc2)nn1-c1ccccc1)C3c1ccc(Cl)cc1 (centres undefined) | > 100 µM (inactive) | – | > 100 µM (inactive) | 79.3 µM (inactive) | 46.1 µM (inactive) | > 10 µM (inactive) | > 100 µM (inactive) | 50.8 µM (inactive) | 53.6 µM (inactive) | > 100 µM (inactive) | > 100 µM (inactive) | 39.4 µM (inactive) | > 100 µM (inactive) | > 100 µM (inactive) | > 100 µM (inactive) | 34.8 µM (inactive) | 47.2 µM (inactive) | 39.6 µM (inactive) | 45.1 µM (inactive) | 23.2 µM (inactive)
5 | Cc1nc(N)sc1/N=N/c1cc(Cl)c([N+](=O)[O-])cc1Cl | 22.8 µM (inactive) | – | 18.1 µM (inactive) | 50.4 µM (inactive) | 12 µM (inactive) | 22.9 µM (inactive) | 14.8 µM (inactive) | 23.9 µM (inactive) | 16.3 µM (inactive) | 26.9 µM (inactive) | 12.4 µM (inactive) | 21.4 µM (inactive) | 12.8 µM (inactive) | 15.6 µM (inactive) | 30 µM (inactive) | 29.1 µM (inactive) | 29.9 µM (inactive) | < 0.01 µM (active) | 13.6 µM (inactive) | 21.9 µM (inactive)
6 | CC1CN=C(Nc2ccc(S(N)(=O)=O)cc2)S1 (centres undefined) | > 100 µM (inactive) | – | > 100 µM (inactive) | > 100 µM (inactive) | > 100 µM (inactive) | > 100 µM (inactive) | > 100 µM (inactive) | > 100 µM (inactive) | > 100 µM (inactive) | 78.5 µM (inactive) | > 100 µM (inactive) | > 100 µM (inactive) | > 100 µM (inactive) | > 100 µM (inactive) | > 100 µM (inactive) | > 100 µM (inactive) | > 100 µM (inactive) | > 100 µM (inactive) | > 100 µM (inactive) | > 100 µM (inactive)
7 | O/N=C1\CCc2nonc2\C1=N/Nc1ccccc1 | > 100 µM (inactive) | – | > 100 µM (inactive) | > 100 µM (inactive) | > 100 µM (inactive) | > 100 µM (inactive) | > 100 µM (inactive) | > 100 µM (inactive) | > 100 µM (inactive) | – | > 100 µM (inactive) | > 100 µM (inactive) | > 100 µM (inactive) | > 100 µM (inactive) | > 100 µM (inactive) | > 100 µM (inactive) | > 100 µM (inactive) | > 100 µM (inactive) | > 100 µM (inactive) | > 100 µM (inactive)
8 | Cc1cc2[nH]c3c(C#N)c(-c4ccccc4)c(CN4CCOCC4)c(=O)n3c2cc1C | > 100 µM (inactive) | > 100 µM (inactive) | > 100 µM (inactive) | > 100 µM (inactive) | > 100 µM (inactive) | – | > 100 µM (inactive) | > 100 µM (inactive) | > 100 µM (inactive) | > 100 µM (inactive) | – | > 100 µM (inactive) | > 100 µM (inactive) | > 100 µM (inactive) | > 100 µM (inactive) | > 100 µM (inactive) | > 100 µM (inactive) | 40.7 µM (inactive) | – | –
9 | COC1OC(Cn2cc([N+](=O)[O-])nc2C)C(O)C(O)C1O (centres undefined) | > 100 µM (inactive) | – | > 100 µM (inactive) | > 100 µM (inactive) | 5.93 µM (inactive) | – | > 100 µM (inactive) | > 100 µM (inactive) | > 100 µM (inactive) | > 100 µM (inactive) | > 100 µM (inactive) | – | > 100 µM (inactive) | > 100 µM (inactive) | > 100 µM (inactive) | > 100 µM (inactive) | – | – | > 100 µM (inactive) | > 100 µM (inactive)
10 | CCOC(CN(C)C(=O)Nc1cccc2ccccc12)OCC | > 10 µM (inactive) | – | > 10 µM (inactive) | > 10 µM (inactive) | > 10 µM (inactive) | > 10 µM (inactive) | > 10 µM (inactive) | > 10 µM (inactive) | > 10 µM (inactive) | > 10 µM (inactive) | > 10 µM (inactive) | > 10 µM (inactive) | > 10 µM (inactive) | > 10 µM (inactive) | > 10 µM (inactive) | > 10 µM (inactive) | > 10 µM (inactive) | > 10 µM (inactive) | > 10 µM (inactive) | > 10 µM (inactive)
11 | CN(CCCNC(=O)c1nn(-c2ccc(Cl)cc2Cl)c2c1ccc1ccccc12)CCCNC(=O)c1nn(-c2ccc(Cl)cc2Cl)c2c1ccc1ccccc12 | 1.65 µM (inactive) | – | 1.77 µM (inactive) | 1.6 µM (inactive) | 1.95 µM (inactive) | 0.322 µM (active) | 1.75 µM (inactive) | 1.67 µM (inactive) | 1.69 µM (inactive) | 1.56 µM (inactive) | 1.57 µM (inactive) | 1.89 µM (inactive) | 1.63 µM (inactive) | 1.72 µM (inactive) | 1.78 µM (inactive) | 1.54 µM (inactive) | 1.61 µM (inactive) | 1.75 µM (inactive) | 0.278 µM (active) | 1.44 µM (inactive)
12 | O=[N+]([O-])c1ccc2[nH]c(=S)[nH]c(=S)c2c1 | > 100 µM (inactive) | – | > 100 µM (inactive) | > 100 µM (inactive) | > 100 µM (inactive) | > 100 µM (inactive) | > 100 µM (inactive) | > 100 µM (inactive) | > 100 µM (inactive) | > 100 µM (inactive) | > 100 µM (inactive) | > 100 µM (inactive) | > 100 µM (inactive) | > 100 µM (inactive) | > 100 µM (inactive) | > 100 µM (inactive) | > 100 µM (inactive) | 20.7 µM (inactive) | > 100 µM (inactive) | > 100 µM (inactive)
13 | O=C1c2ccccc2C2=Nc3ccncc3CN12 | > 100 µM (inactive) | > 100 µM (inactive) | 90.2 µM (inactive) | > 100 µM (inactive) | > 100 µM (inactive) | > 100 µM (inactive) | – | > 100 µM (inactive) | > 100 µM (inactive) | > 100 µM (inactive) | > 100 µM (inactive) | > 100 µM (inactive) | > 100 µM (inactive) | > 100 µM (inactive) | > 100 µM (inactive) | > 100 µM (inactive) | > 100 µM (inactive) | 74.5 µM (inactive) | > 100 µM (inactive) | –
14 | COc1cc(C2c3cc4c(cc3[C@@H](Nc3ccc([N+](=O)[O-])cc3)C3COC(=O)[C@H]23)OCO4)cc(OC)c1O (some centres undefined) | 4.26 µM (inactive) | 2.3 µM (inactive) | 2.56 µM (inactive) | 1.33 µM (inactive) | 2.01 µM (inactive) | 0.263 µM (active) | – | 0.466 µM (active) | 0.631 µM (active) | 0.615 µM (active) | 2.64 µM (inactive) | 2.41 µM (inactive) | – | 4.57 µM (inactive) | 0.0286 µM (active) | 0.778 µM (active) | 2.01 µM (inactive) | 1.19 µM (inactive) | 0.0552 µM (active) | –
15 | O=C1/C(=C/c2ccccc2O)N=C(c2ccccc2)N1C1Nc2cc3c(cc2S1)NC(N1C(=O)/C(=C/c2ccccc2O)N=C1c1ccccc1)S3 (centres undefined) | 35.2 µM (inactive) | – | 41.3 µM (inactive) | 38.3 µM (inactive) | – | 28.9 µM (inactive) | 32.7 µM (inactive) | 42.1 µM (inactive) | 29.6 µM (inactive) | 2.13 µM (inactive) | 42.3 µM (inactive) | 25.4 µM (inactive) | – | 55.1 µM (inactive) | 12.5 µM (inactive) | – | 16.6 µM (inactive) | – | 18.3 µM (inactive) | 30.5 µM (inactive)
16 | C=CCCCN(C(=O)c1ccccc1)c1ccc(C(=O)OC)o1 | > 100 µM (inactive) | – | 95.1 µM (inactive) | > 100 µM (inactive) | > 100 µM (inactive) | 19.3 µM (inactive) | > 100 µM (inactive) | > 100 µM (inactive) | – | > 100 µM (inactive) | > 100 µM (inactive) | > 100 µM (inactive) | > 100 µM (inactive) | – | > 100 µM (inactive) | > 100 µM (inactive) | > 100 µM (inactive) | > 100 µM (inactive) | – | > 100 µM (inactive)
